Assay results from US20250009743A1, “METHODS OF TREATING CANCERS USING STING AGONISTS” (Dana-Farber Cancer Institute, Inc., priority 2021, published 2025).
Entries after “also recorded” stand apart in the source; their conditions may differ.

How the values were obtained:
THP-1 macrophages = assay: Marker expression in MDA-MB-436 tumor cell-educated THP-1 macrophages; assay type: cell-based, human; conditions: ADU-S100 10 μM, two days; FIG. 7G
Description: Cells were cultured in a humidified incubator under 5% CO2 at 37° C. MDA-MB-436, HCC1937 and THP-1 human cell lines were obtained from ATCC, tested negative for mycoplasma, and authenticated using short tandem repeat analysis (Promega GenePrint 10 System). MDA-MB-436 and HCC1937 breast cancer cells were cultured in RPMI 1640 medium (Gibco) supplemented with 10% heat-inactivated fetal bovine serum (FBS, Gemini) and 100 μg/mL penicillin-streptomycin (Gibco). THP-1 monocytes were cultured in RPMI 1640 with 10% FBS and 0.055 mM 2-mercaptoethanol (Gibco, #21985023). To differentiate THP-1 monocytes to macrophages, cells were treated with 100 nM PMA (Sigma, #P1585) for 48 h, followed by 24 h recovery with PMA-free medium.
For flow cytometry analyses of tumor and TDLN samples, single-cell suspensions were obtained as described above (Tissue Digestion). Cells were stained in cold FACS buffer (PBS containing 0.2% BSA and 5 mM EDTA) with LIVE/DEAD Fixable Aqua Dead Cell Stain (Thermo Fisher) for 30 min on ice, followed by blocking with anti-CD16/32 (BioLegend) for 20 min on ice. […] All data were analyzed using FlowJo software. […]

[1] = test system: BMDMs generated from FVB/NJ mice; assay: Polarization of mouse BMDMs cultured in PBM / PBM-R conditioned medium; assay type: cell-based; conditions: BMDMs in 50% PBM-R-CM; ADU-S100 10 μM or MSA-2 5 ug/ml, two days; FIG. 21B
Description: For ex vivo culture of mouse macrophages, bone marrow cells were isolated from FVB/NJ mice and cultured in DMEM containing 10% FBS, 55 μM 2-Mercaptoethanol and 20 ng/ml M-CSF. BMDMs (bone marrow derived macrophages) were harvested on day 7 and further cultured in 2.0 ml control medium (90% DMEM, 10% FBS, 55 μM 2-Mercaptoethanol and 5 ng/ml M-CSF) described above or the medium containing 50% tumor cell conditioned medium for 72 hrs before analysis. For the tumor cell conditioned medium, about 3×10^5 tumor cells were cultured in 6-well plate for 24 hrs and then treated with DMSO or olaparib. After 24 hrs incubation with DMSO or olaparib, the tumor cells were washed twice with PBS and cultured in DMEM containing 10% FBS for 48 hrs. The tumor cell conditioned medium was collected by centrifugation at 1,500 g for 5 min at 4° C. to remove all the debris and cells. For the cytokine blocking experiment, monoclonal antibodies that specific to each cytokine were added to the tumor cell conditioned medium before it was applied to culture macrophages.

human BMDMs = assay: Polarization of human BMDMs cultured in CM from ovarian PDXs; assay type: cell-based; conditions: STAT3 inhibitor-treated PDXs; FIG. 25D
Description: For ex vivo culture of human macrophages, human BMDMs were generated from bone marrow mononuclear cells (BMMs) (CAT #70001) obtained from […] Technologies. Briefly, BMMs were cultured in DMEM containing 10% FBS, 55 μM 2-Mercaptoethanol (CAT #21985023, Thermo Fisher) and 50 ng/ml M-CSF for 5-7 days with media replacement every 3 days to obtain matured macrophages (BMDMs). […] Flow cytometry analysis was preformed to analyze the phenotypes of macrophages for both mouse and human BMDMs.

[2] = test system: EFGR/ERK signaling pathway
PC9GR4 = assay: CXCL10 and CCL5 expression in PC9GR4 cells (RT-PCR); assay type: cell-based, human; conditions: FIG. 27C
Description: (§1) Cultured cells were lysed in 1 mL TRIZOL® reagent supplied with 200 μL chloroform, after which, samples were vortexed vigorously for 15s and incubated at room temperature for 2 to 3 minutes. The samples were then centrifuged at 12000 g for 15 minutes at 4° C., and collected aqueous phase only. […] Relative mRNA levels were calculated using the […]. Mouse Actb and human GAPDH were used as endogenous controls for mouse and human samples, respectively.

PE tumor cells = assay: CXCL10 and CCL5 expression in PE tumor cells (RT-PCR); assay type: cell-based, mouse; conditions: FIG. 27C
Description: as §1

PE tumors [3] = assay: PE (exon19del/T790M EGFR, Trp53 loss) tumor growth in FVB mice; assay type: in vivo, mouse; conditions: mouse, in vivo
PE tumors [4] = assay: Flow cytometry of immune cells in PE tumors and tumor-drainage lymph nodes; assay type: in vivo, mouse
Description: To obtain single-cell suspension from tumor mass, tumors were excised, minced and dissociated in collagenase buffer (DMEM supplemented with 5% FBS, 10 mM HEPES [Gibco), 100 μg/mL penicillin-streptomycin, 20 μg/mL DNase I [StemCell] and 1× collagenase/hyaluronidase [StemCell]) at 37° C. for 45 min. Tumor-draining lymph nodes were isolated from tumor-bearing mice and were mashed through 70 μm strainer using plunger of a syringe to obtain single-cell suspension.
For FACS staining, tissue cells were first stained with LIVE/DEAD Fixable Aqua Dead Cell Stain (Thermo Fisher) for 30 min on ice, followed by blocking with anti-CD16/32 (BioLegend) for 20 minutes on ice. Afterwards, cells were incubated with antibodies targeting surface biomarkers in FACS buffer for 30 minutes on ice.

In the case of `Nc1ncnc2c1ncn2[C@@H]1O[C@@H]2COP(=O)([S-])O[C@@H]3[C@H](O)[C@@H](COP([O-])(=S)O[C@H]2[C@H]1O)O[C@H]3n1cnc2c(N)ncnc21.[Na+].[Na+]` (some centres unmarked) [ADU-S100], the CD86 expression (THP-1 macrophages) is reported as “significantly increased”, the CD163 expression (THP-1 macrophages) is reported as “suppressed” and the M1/M2 ratio [1] is reported as “significantly increased”.

With `CC(=O)c1cc2c(o1)C(=O)c1ccccc1C2=O` [napabucasion] the “M2-like macrophage polarization induced by CM from DF86 and DF118” value (human BMDMs) was “partially diminished”.

For `C=CC(=O)Nc1cc(Nc2nccc(-c3cn(C)c4ccccc34)n2)c(OC)cc1N(C)CCN(C)C` [osimertinib], the “activation of EFGR/ERK signaling pathway (phosphorylation of EGFR and ERK)” value [2] was “inhibited”, the “expression of CXCL10 and CCL5” value (PC9GR4) was “significantly elevated” and the “expression of CXCL10 and CCL5” value (PE tumor cells) was “significantly elevated”. For the same compound, the PE tumor growth (PE tumors [3]) was “significantly slowed PE tumor growth; also recorded: tumor regression; also recorded: only modest therapeutic effects”, the “growth of large PE tumors” value (PE tumors [3]) was “progressed through osimertinib treatment and presented growth rates comparable to control” and the “therapeutic effect under CD8^+ T cell depletion” value (PE tumors [3]) was “significantly mitigated”. The “T cells or IFNg^+/TNFa^+ T cells in large PE tumors” value (PE tumors [4]; large tumors) was “did not lead to increase”, the “tumor immune microenvironment of large PE tumors” value (PE tumors [4]; single-agent treatment, FIG. 30B) was “did not significantly affect” and the “CD8^+ and CD4^+ T cells in tumor” value (PE tumors [4]; small tumors, FIG. 27B) was “induced the recruitment of CD8^+ and CD4^+ T cells”. The “IFNg-positive CD8^+ and CD4^+ T cells” value (PE tumors [4]; small tumors, FIG. 27B) was “increase”.
